Biological target: T1, Cbl-b (Homo sapiens, UniProt Q13191)
T1 construct: Cbl-b-HiBit KI Jurkat Cells were purchased from Promega; host or cells: Cbl-b-HiBiT knock-in Jurkat cells
Assay: Cbl-b Degradation Method B (Nano-Glo HiBiT lytic detection)
Format: cell-based
Conditions: Cbl-b-HiBit KI Jurkat Cells, incubated at least 6-24 hours; for DC50: half maximal degradation, read-out: Cbl-b Degredation Method B IC50; for Dmax: maximum degradation observed, read-out: Cbl-b Degredation Method B Dmax (%)
Experimental: Cbl-b Degradation Method B [table] Cbl-b-HiBit KI Jurkat Cells were purchased from Promega, and cell media consisted of RPMI 1640 with 10% […] and 1% pen/strep. The cells were counted, measured for viability, and 35 μL of the cell solution was seeded into 384 well flat bottom plates at a ratio of 20,000 cells per 35 μL. After which, the plates were incubated for ˜24 hours at 37° C. and 5% CO2. Compounds were ordered from Evotec in a 384 well plate at a 1 mM top concentration in DMSO and serially diluted 1:3 in DMSO for an 11-point dose response. Using the Bravo instrument, 1 uL of compound solution or DMSO was transferred to 125 uL of media. Each well was treated with 5 μL of compound plus media mixture or DMO and subsequently incubated for at least 6-24 hours at 37° C. and 5% CO2. After incubation, 30 μL of either NanoGlo media was added to each cell, and the plates read on the Synergy Neo2 machine. The concentration of an exemplary compound that leads to half maximal degradation (DC50) as well as the maximum degradation observed (Dmax, conventionally expressed as a percentage of control) is shown below in Table 2.

T1 sequence (Q13191 whole entry): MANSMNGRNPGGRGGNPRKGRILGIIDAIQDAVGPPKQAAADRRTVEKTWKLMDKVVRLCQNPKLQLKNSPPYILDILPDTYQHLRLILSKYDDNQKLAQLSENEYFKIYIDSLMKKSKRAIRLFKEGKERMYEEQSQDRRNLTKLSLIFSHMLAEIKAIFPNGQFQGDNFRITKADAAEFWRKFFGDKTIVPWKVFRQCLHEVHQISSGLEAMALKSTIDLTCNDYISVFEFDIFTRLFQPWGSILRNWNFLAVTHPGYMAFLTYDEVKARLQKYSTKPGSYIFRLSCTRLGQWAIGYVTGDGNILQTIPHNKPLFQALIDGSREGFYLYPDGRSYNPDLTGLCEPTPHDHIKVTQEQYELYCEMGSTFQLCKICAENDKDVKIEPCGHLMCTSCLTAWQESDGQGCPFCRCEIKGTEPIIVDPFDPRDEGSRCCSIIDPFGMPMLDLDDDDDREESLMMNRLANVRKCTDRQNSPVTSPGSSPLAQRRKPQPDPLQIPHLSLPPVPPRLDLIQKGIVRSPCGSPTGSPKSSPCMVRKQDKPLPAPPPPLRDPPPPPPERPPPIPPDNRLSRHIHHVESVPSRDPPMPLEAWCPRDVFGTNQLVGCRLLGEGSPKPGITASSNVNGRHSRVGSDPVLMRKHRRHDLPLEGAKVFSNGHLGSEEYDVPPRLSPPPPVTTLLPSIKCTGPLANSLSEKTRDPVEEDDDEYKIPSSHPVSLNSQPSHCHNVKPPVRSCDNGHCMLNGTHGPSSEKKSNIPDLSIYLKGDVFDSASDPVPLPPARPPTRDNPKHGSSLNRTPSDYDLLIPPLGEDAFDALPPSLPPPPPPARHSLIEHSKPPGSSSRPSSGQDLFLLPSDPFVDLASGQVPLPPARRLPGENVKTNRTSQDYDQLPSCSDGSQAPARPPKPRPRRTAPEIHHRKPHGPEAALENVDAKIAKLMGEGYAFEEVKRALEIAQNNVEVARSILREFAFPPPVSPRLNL

DC50 [nM] | Dmax [%] | SMILES
< 5 | > 70 | CC(C)n1c(=O)n(C2CCC(=O)NC2=O)c2ccc(N3CCC(O[C@H]4CC[C@@H](CN5CCN(C[C@H]6CCCN(Cc7cc(C(F)(F)F)c8cn(-c9cccc(C%10(Cc%11nncn%11C)COC%10)c9)nc8c7)C6)CC5)CC4)CC3)cc21 (stereo partly drawn) [Example 268, 3-[2-oxo-3-(propan-2-yl)-5-(4-{[(1r,4r)-4-[(4-{[(3S)-1-{[2-(3-{3-[(4-methyl-4H-1,2,4-triazol-3-yl)methyl]oxetan-3-yl}phenyl)-4-(trifluoromethyl)-2H-indazol-6-yl]methyl}piperidin-3-yl]methyl}piperazin-1-yl)methyl]cyclohexyl]oxy}piperidin-1-yl)-2,3-dihydro-1H-1,3-benzodiazol-1-yl]piperidine-2,6-dione]
> 500 |  | Cn1cnnc1CC1(c2cccc(-n3cc4c(C(F)(F)F)cc(CN5CCC[C@H](CN6CCC[C@H](CN7CCN(c8ccc9c(c8F)CN(C8CCC(=O)NC8=O)C9=O)CC7)C6)C5)cc4n3)c2)COC1 (stereo partly drawn) [Example 155, 3-[4-fluoro-5-[4-[[(3S)-1-[[(3R)-1-[[2-[3-[3-[(4-methyl-1,2,4-triazol-3-yl)methyl]oxetan-3-yl]phenyl]-4-(trifluoromethyl)indazol-6-yl]methyl]-3-piperidyl]methyl]-3-piperidyl]methyl]piperazin-1-yl]-1-oxo-isoindolin-2-yl]piperidine-2,6-dione]
> 500 |  | Cn1cnnc1CC1(c2cccc(N3Cc4c(cc(CN5CCN(c6ccc(C(=O)NC7CCC(=O)NC7=O)c(F)c6)CC5)cc4C(F)(F)F)C3=O)c2)COC1 (stereo not shown) [Example 35, N-(2,6-dioxopiperidin-3-yl)-2-fluoro-4-(4-{[2-(3-{3-[(4-methyl-4H-1,2,4-triazol-3-yl)methyl]oxetan-3-yl}phenyl)-3-oxo-7-(trifluoromethyl)-2,3-dihydro-1H-isoindol-5-yl]methyl}piperazin-1-yl)benzamide]
< 5 | 35 to 70 | C[C@@H]1C[C@H](CN2CCC(CN3CCC(CN4CCN(c5ccc6c(c5)C(=O)N(C5CCC(=O)NC5=O)C6=O)CC4)CC3)CC2)CN(Cc2cc3c(c(C(F)(F)F)c2)CN(c2cccc(C4(Cc5nncn5C)COC4)c2)C3=O)C1 (stereo partly drawn) [Example 72, 2-(2,6-dioxopiperidin-3-yl)-5-[4-({1-[(1-{[(3R,5R)-5-methyl-1-{[2-(3-{3-[(4-methyl-4H-1,2,4-triazol-3-yl)methyl]oxetan-3-yl}phenyl)-3-oxo-7-(trifluoromethyl)-2,3-dihydro-1H-isoindol-5-yl]methyl}piperidin-3-yl]methyl}piperidin-4-yl)methyl]piperidin-4-yl}methyl)piperazin-1-yl]-2,3-dihydro-1H-isoindole-1,3-dione]
< 5 | > 70 | Cn1cnnc1C[C@]1(c2cccc(N3Cc4c(cc(CN5CCN(C[C@H]6CC[C@H](OC7CCN(c8cccc9c8n(C)c(=O)n9C8CCC(=O)NC8=O)CC7)CC6)CC5(C)C)cc4C(F)(F)F)C3=O)c2)C[C@H](C#N)C1 (stereo partly shown) [Example 274, (1r,3r)-3-(3-{6-[(2,2-dimethyl-4-{[(1r,4r)-4-({1-[1-(2,6-dioxopiperidin-3-yl)-3-methyl-2-oxo-2,3-dihydro-1H-1,3-benzodiazol-4-yl]piperidin-4-yl}oxy)cyclohexyl]methyl}piperazin-1-yl)methyl]-1-oxo-4-(trifluoromethyl)-2,3-dihydro-1H-isoindol-2-yl}phenyl)-3-[(4-methyl-4H-1,2,4-triazol-3-yl)methyl]cyclobutane-1-carbonitrile]
> 500 |  | O=C1CCC(N2Cc3c(ccc(N4CCC(O[C@H]5CC[C@H](CN6CCN(Cc7cc8c(c(C(F)(F)F)c7)CN(c7cccc(C9(Cc%10nnc[nH]%10)COC9)c7)C8=O)CC6)CC5)CC4)c3F)C2=O)C(=O)N1 (stereo partly shown) [Example 197, 3-[4-fluoro-1-oxo-5-(4-{[(1r,4r)-4-[(4-{[3-oxo-2-(3-{3-[(4H-1,2,4-triazol-3-yl)methyl]oxetan-3-yl}phenyl)-7-(trifluoromethyl)-2,3-dihydro-1H-isoindol-5-yl]methyl}piperazin-1-yl)methyl]cyclohexyl]oxy}piperidin-1-yl)-2,3-dihydro-1H-isoindol-2-yl]piperidine-2,6-dione]
> 500 |  | Cn1cnnc1CC1(c2cccc(-n3cc4c(C(F)(F)F)cc(CN5CCC[C@H](CN6CCC(OC7CCN(c8ccc9c(c8F)CN(C8CCC(=O)NC8=O)C9=O)CC7)CC6)C5)cc4n3)c2)COC1 (stereo partly drawn) [Example 259, 3-(4-fluoro-5-{4-[(1-{[(3R)-1-{[2-(3-{3-[(4-methyl-4H-1,2,4-triazol-3-yl)methyl]oxetan-3-yl}phenyl)-4-(trifluoromethyl)-2H-indazol-6-yl]methyl}piperidin-3-yl]methyl}piperidin-4-yl)oxy]piperidin-1-yl}-1-oxo-2,3-dihydro-1H-isoindol-2-yl)piperidine-2,6-dione]
> 500 |  | Cn1cnnc1CC1(c2cccc(-n3cc4ccc(CN5CCN(C[C@H]6CC[C@H](OC7CCN(c8ccc9c(c8F)CN(C8CCC(=O)NC8=O)C9=O)CC7)CC6)CC5)cc4n3)c2)COC1 (stereo partly shown) [Example 207, 3-[4-fluoro-1-oxo-5-(4-{[(1r,4r)-4-[(4-{[2-(3-{3-[(4-methyl-4H-1,2,4-triazol-3-yl)methyl]oxetan-3-yl}phenyl)-2H-indazol-6-yl]methyl}piperazin-1-yl)methyl]cyclohexyl]oxy}piperidin-1-yl)-2,3-dihydro-1H-isoindol-2-yl]piperidine-2,6-dione]
< 5 | > 70 | CC(C)n1c(=O)n(C2CCC(=O)NC2=O)c2ccc(N3CCC(O[C@H]4CC[C@H](CN5CCN(Cc6cc7c(c(C(F)(F)F)c6)CN(c6cccc([C@]8(Cc9nncn9C)C[C@@H](C#N)C8)c6)C7=O)C(C)(C)C5)CC4)CC3)cc21 (stereo partly shown) [Example 229, (1r,3r)-3-(3-{6-[(2,2-dimethyl-4-{[(1r,4r)-4-({1-[1-(2,6-dioxopiperidin-3-yl)-2-oxo-3-(propan-2-yl)-2,3-dihydro-1H-1,3-benzodiazol-5-yl]piperidin-4-yl}oxy)cyclohexyl]methyl}piperazin-1-yl)methyl]-1-oxo-4-(trifluoromethyl)-2,3-dihydro-1H-isoindol-2-yl}phenyl)-3-[(4-methyl-4H-1,2,4-triazol-3-yl)methyl]cyclobutane-1-carbonitrile]
> 500 |  | COc1ccc(C(=O)N2CCC(CN3CCN(Cc4cc5c(c(C(F)(F)F)c4)CN(c4cccc(C6(Cc7nncn7C)COC6)c4)C5=O)CC3)CC2)cc1N1CCC(=O)NC1=O [Example 53, 1-(2-methoxy-5-{4-[(4-{[2-(3-{3-[(4-methyl-4H-1,2,4-triazol-3-yl)methyl]oxetan-3-yl}phenyl)-3-oxo-7-(trifluoromethyl)-2,3-dihydro-1H-isoindol-5-yl]methyl}piperazin-1-yl)methyl]piperidine-1-carbonyl}phenyl)-1,3-diazinane-2,4-dione]
5 to 50 | > 70 | Cn1cnnc1CC1(c2cccc(N3Cc4c(cc(CN5CCN(C[C@H]6CC[C@H](OC7CCN(c8ccc9c(c8F)CN(C8CCC(=O)NC8=O)C9=O)CC7)CC6)CC5(C)C)cc4C(F)(F)F)C3=O)c2)CC(C#N)C1 (stereo partly shown) [Example 254, (1r**,3r**)-3-(3-{6-[(2,2-dimethyl-4-{[(1r*,4r*)-4-({1-[2-(2,6-dioxopiperidin-3-yl)-4-fluoro-1-oxo-2,3-dihydro-1H-isoindol-5-yl]piperidin-4-yl}oxy)cyclohexyl]methyl}piperazin-1-yl)methyl]-1-oxo-4-(trifluoromethyl)-2,3-dihydro-1H-isoindol-2-yl}phenyl)-3-[(4-methyl-4H-1,2,4-triazol-3-yl)methyl]cyclobutane-1-carbonitrile]
< 5 | < 35 | CC1c2nc(N3CCC(O[C@H]4CC[C@H](CN5CCN(Cc6cc(C(F)(F)F)c7cn(-c8cccc(C9(Cc%10nncn%10C)COC9)c8)nc7c6)CC5)CC4)CC3)ccc2C(=O)N1C1CCC(=O)NC1=O (stereo partly shown) [Example 216, 3-[7-methyl-5-oxo-2-(4-{[(1r,4r)-4-[(4-{[2-(3-{3-[(4-methyl-4H-1,2,4-triazol-3-yl)methyl]oxetan-3-yl}phenyl)-4-(trifluoromethyl)-2H-indazol-6-yl]methyl}piperazin-1-yl)methyl]cyclohexyl]oxy}piperidin-1-yl)-5H,6H,7H-pyrrolo[3,4-b]pyridin-6-yl]piperidine-2,6-dione]

SMILES | DC50 [nM] | Dmax [%]
Cn1cnnc1CC1(c2cccc(N3Cc4c(cc(CN5CCC(CN(C)[C@H]6C[C@H](Oc7ccc8c(c7)C(=O)N(C7CCC(=O)NC7=O)C8=O)C6)CC5)cc4C(F)(F)F)C3=O)c2)COC1 (stereo partly shown) [Example 60, 2-(2,6-dioxopiperidin-3-yl)-5-[(1r,3r)-3-{methyl[(1-{[2-(3-{3-[(4-methyl-4H-1,2,4-triazol-3-yl)methyl]oxetan-3-yl}phenyl)-3-oxo-7-(trifluoromethyl)-2,3-dihydro-1H-isoindol-5-yl]methyl}piperidin-4-yl)methyl]amino}cyclobutoxy]-2,3-dihydro-1H-isoindole-1,3-dione] | > 500 | 
